Consider 23 molecules from the supplement of paper PMC3974653.

The test concerns MTT (mouse pheochromocytoma). Nature of the test: IC50 of cell viability (ATP content). Particulars: (24 or 48 h). The method, boiled down:
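CellTiter-Glo ATP luminescence, read after 15 minutes, was used to assess MTT mouse pheochromocytoma cells treated for 24 or 48 hrs with library compounds (final 0.5 nM to 46 µM, 8 concentrations). The cells had been plated at 5 µl of 200,000 cells/ml per well in white 1536-well plates in DMEM with 5% FBS and 1% horse serum and cultured overnight at 37°C, 5% CO2. Normalisation set positive-control wells to 100% and DMSO wells to 0%. The IC50 was then determined by four-parameter logistic fitting.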

Structures are written as SMILES. Counter-ions that a name gives are not always drawn.

On to `CCCN(CCC)C(=O)Cc1c(-c2ccc(Cl)cc2)nc2ccc(Cl)cn12` [Alpidem], for which the “IC50 of cell viability” value is above 46 µM.

For the molecule `CCCCCCCCCCCCCCCC(=O)O[C@@H]1[C@@H](O)[C@@H](O)C(C(NC(=O)[C@H]2C[C@@H](CCC)CN2C)C(C)Cl)O[C@@H]1SC` (stereo partly drawn) [Clindamycin palmitate], the “IC50 of cell viability” value was above 46 µM.

Take `CCCCCCCCCCCCCCCC(=O)O` [Hexadecanoic acid]: the “IC50 of cell viability” value was above 46 µM.

Regarding `CCN[C@@H](C)Cc1cccc(C(F)(F)F)c1` [(+)-Fenfluramine], the “IC50 of cell viability” value was above 46 µM.

On to `CC(C)CN(C[C@@H](O)[C@H](Cc1ccccc1)NC(=O)O[C@@H]1CO[C@H]2OCC[C@H]21)[S+](=O)([O-])c1ccc(N)cc1` [DARUNAVIR ETHANOLATE], for which the “IC50 of cell viability” value was above 46 µM.

On to `CCC(C(=O)OCCN(CC)CC)c1ccccc1` (stereo not drawn) [BUTETAMATUM], for which the “IC50 of cell viability” value is above 46 µM.

Take `C/C=C\C[C@H](C)[C@H](O)[C@H]1C(=O)N[C@@H](CC)C(=O)N(C)CC(=O)N(C)[C@@H](CC(C)C)C(=O)N[C@@H](C(C)C)C(=O)N(C)[C@@H](CC(C)C)C(=O)N[C@@H](C)C(=O)N[C@@H](C)C(=O)N(C)[C@@H](CC(C)C)C(=O)N(C)[C@@H](CC(C)C)C(=O)N(C)[C@@H](C(C)C)C(=O)N1C` [Cyclosporin A]: the “IC50 of cell viability” value was above 46 µM.

As for `CCCOC(=O)c1cc(O)c(O)c(O)c1` [Propyl gallate], the “IC50 of cell viability” value is above 46 µM.

Turning to `CCCn1cnc2c1c(=O)n(CCCCC(C)=O)c(=O)n2C` [PROPENTOFYLLINE], the “IC50 of cell viability” value was above 46 µM.

Turning to `CC(C)Cn1cnc2c(N)nc3ccccc3c21` [Imiquimod], the “IC50 of cell viability” value was above 46 µM.

Regarding `Cc1nc(-c2ccc(OCC(C)C)c(C#N)c2)sc1C(=O)O` [Febuxostat], the “IC50 of cell viability” value was above 46 µM.

On to `c1ccc2c(c1)Sc1ccccc1N2CC1CN2CCC1CC2` (stereo not drawn) [Mequitazine], for which the “IC50 of cell viability” value is above 46 µM.

For `O.O.O=S([O-])CO.[Na+]` [Hydroxymethanesulfinic acid monosodium salt dihydrate], the “IC50 of cell viability” value was above 46 µM.

Regarding `CSCC[C@H](NC(=O)[C@@H](Cc1ccc(O[S+](=O)([O-])O)cc1)NC(=O)[C@H](N)CC(=O)O)C(=O)NCC(=O)N[C@@H](Cc1c[nH]c2ccccc12)C(=O)N[C@H](CCSC)C(=O)N[C@H](CC(=O)O)C(=O)N[C@@H](Cc1ccccc1)C(N)=O` [SINCALIDE], the “IC50 of cell viability” value was above 46 µM.

With `CCN(C)C(=O)Oc1cccc([C@H](C)N(C)C)c1` [RIVASTIGMINE TARTRATE], the “IC50 of cell viability” value was above 46 µM.

For `CCCCC(CC)COC(=O)C(C#N)=C(c1ccccc1)c1ccccc1` (stereo not drawn) [Octocrylene], the “IC50 of cell viability” value was above 46 µM.

As for `CO/N=C(\C(=O)N[C@@H]1C(=O)N2C(C(=O)OCOC(=O)C(C)(C)C)=C(C)CS[C@H]12)c1csc(N)n1` [CEFETAMET PIVOXIL HCl], the “IC50 of cell viability” value is above 46 µM.

For `O=C(O)CCNC(=O)c1ccc(/N=N/c2ccc(O)c(C(=O)O)c2)cc1` [BALSALAZIDE DISODIUM], the “IC50 of cell viability” value is above 46 µM.

Consider `C[C@H](CN1c2ccccc2Sc2cccnc21)N(C)C` [ISOTHIPENDYL HYDROCHLORIDE], for which the “IC50 of cell viability” value was above 46 µM.

`COC(=O)C1=C(C)NC(C)=C(C(=O)O[C@H]2CCN(Cc3ccccc3)C2)C1c1cccc([N+](=O)[O-])c1` (stereo partly drawn) [Barnidipine]: the “IC50 of cell viability” value is above 46 µM.

Turning to `O=[N+]([O-])O[C@H]1CO[C@H]2[C@@H]1OC[C@H]2O` [ISOSORBIDE MONONITRATE], the “IC50 of cell viability” value is above 46 µM.

Consider `CC(C)(C)C(O)C(Oc1ccc(Cl)cc1)n1cncn1` (stereo not drawn) [Triadimenol], for which the “IC50 of cell viability” value is above 46 µM.

Take `CCC(=O)OC1CCC2C3CCc4cc(O)ccc4C3CCC12C` (stereo not drawn): the “IC50 of cell viability” value was above 46 µM.
